The METLIN SMRT retention time set (Domingo-Almenara et al. 2019)

Assay: gradient 5% acetonitrile 3 min, to 50% in 2 min, to 85% in 15 min, held 3 min, 100 µL/min
Conditions: column: Zorbax Extend-C18 2.1 x 50 mm; eluents: water / acetonitrile, 0.1% formic acid
How it was run: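 A Zorbax Extend-C18 column (2.1 × 50 mm, 1.8 μm) run at 100 μL/min with water and acetonitrile, both containing 0.1% formic acid, separated mixtures of ~100 pure standards. The HPLC was coupled to a quadrupole time-of-flight mass spectrometer operated in positive and negative ionization mode, with dead and dwell volumes of 40 μL and 900 μL. Each retention time was taken from a computationally picked adduct peak that was then manually inspected.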

| RP-LC retention time | Compound |
| --- | --- |
| 788 s | CCOC(=O)c1c(C)[nH]c(CCC(=O)NCCc2ccco2)c1C |
| 588 s | Cc1ccc(-c2[nH]ncc2CN2CCC3(CC2)CC(O)CCO3)cc1 (centres undefined) |
| 1030 s | CCn1c(C(=O)NCCc2ccc(OC)c(OC)c2)cc2sc(Cl)cc21 |
| 874 s | COc1ccc2[nH]cc(CCNC(=O)CCC3CCCCC3)c2c1 |
| 884 s | Cc1ccsc1C(=O)Nc1ccc(-c2nc(Cn3cccn3)c(C)o2)cc1 |
| 901 s | Cc1cc(C)cc(S(=O)(=O)N2CCCN(c3ccc(=O)n(-c4ccccc4)n3)CC2)c1 |
| 823 s | CCCN1C(=O)COc2ccc(-c3csc(NC(=O)COC)n3)cc21 |
| 632 s | CN(C(=O)Cn1nc2n(c1=O)CCCC2)c1ccccc1 |
| 1140 s | CCCn1c(=O)c(C)nc2cc(-c3noc(-c4cccc(OC)c4OC)n3)ccc21 |
| 776 s | Cc1cc(N2CCN(S(=O)(=O)c3ccccc3)CC2)nc(NC2CCCCC2)n1 |
| 874 s | Cc1ccc(N2C(=O)CN(S(C)(=O)=O)CC2(C)C(=O)NCc2ccc(Cl)cc2)cc1C (centres undefined) |
| 596 s | CCc1ccc(NC(=O)Cn2c(N)nc(CC)cc2=O)cc1 |
| 763 s | Cc1cccc(-c2ncccc2CNS(=O)(=O)c2cccc(Cl)c2)c1 |
| 810 s | COC(=O)CNC(=O)NC(Cc1ccccc1)Cc1ccc2c(c1)OCO2 (centres undefined) |
| 922 s | COc1ccc(-c2noc(C3CC(=O)N(c4cc(C)cc(C)c4)C3)n2)cc1OC (centres undefined) |
| 764 s | CCOC(=O)c1cnc2nc(C)ccc2c1Nc1cc(F)ccc1Cl |
| 772 s | CCN(Cc1ccccc1)Cc1nc(-c2ccc(N3CCOCC3)nc2)no1 |
| 592 s | Cc1cc(CN2CCC(CNC(=O)C(=O)NCc3ccccc3Cl)CC2)c(C)o1 |
| 747 s | O=C(NCC1CC1)C1CCN(c2nc3ccsc3c(=O)n2-c2ccccc2)CC1 |

| RP-LC retention time | Compound |
| --- | --- |
| 1150 s | CCc1csc(-c2ccc(S(=O)(=O)NC(CC)c3cccs3)s2)n1 (centres undefined) |
| 793 s | CN1c2ccc(Cl)cc2C(=O)NC12CCN(C(=O)c1ccccc1)CC2 |
| 750 s | Nc1cc(C2CCN(C(=O)Nc3ccc(F)c(Cl)c3)CC2)no1 |
| 688 s | CC(C)c1nncn1C1CCN(S(=O)(=O)Cc2ccccc2F)CC1 |
| 867 s | COCC(=O)N(CC(=O)N1CCc2sccc2C1COc1ccc(C)cc1)C(C)C (centres undefined) |
| 758 s | COc1ccc(C(C)(C)C)cc1S(=O)(=O)Nc1ccc(-c2cn3ccc(C)nc3n2)cc1 |
| 1250 s | COc1ccc(NC(=O)c2c(O)c3cccnc3n(-c3ccc(F)cc3)c2=O)cc1 |
| 570 s | Cc1cccc2c(C(N)=O)cc(N3CCCC3)nc12 |
| 955 s | COC(=O)c1ccc(NC(=O)C2CCN(S(=O)(=O)c3c(C)nn(-c4ccccc4)c3C)CC2)cc1 |
| 904 s | Cc1cc(C)cc(N2CCC(NC(=O)c3ccc(C)s3)C2=O)c1 (centres undefined) |
| 705 s | CC(=O)c1ccc(NC(=O)Cn2nc3c(N(C)C4CCCCC4)nccn3c2=O)cc1 |
| 793 s | O=C(Nc1ccc(OCc2nnc(-c3ccccc3)o2)cc1)c1cccnc1Cl |
| 822 s | COCCCNC(=O)CN1c2ccccc2NC2=C(C(=O)CC(C)(C)C2)C1c1ccc(C)cc1 (centres undefined) |
| 702 s | COc1ccc(-c2nc(Nc3nc(C)cc(C)n3)sc2CCC(=O)O)cc1 |
| 711 s | COc1ccc(Nc2c(-c3ccc(OC)cc3)nc3nc(C)cc(C)n23)cc1 |
| 723 s | CCOC(=O)c1cn(CC(=O)NCCC(C)C)c2nc(C)ccc2c1=O |
| 1020 s | Cc1cc(C(=O)N2CCCCC2)c2c(=O)n(Cc3ccc(Cl)cc3)c(=O)n(C)c2n1 |
| 910 s | Cc1cccc(NC(=O)C2CCN(S(=O)(=O)c3ccc4c(c3)sc(=O)n4C)CC2)c1 |

Further lines, the compound ahead of its results:

| Compound | RP-LC retention time |
| --- | --- |
| COc1ccccc1-n1ccn(Cc2nc(-c3ccc(C(C)(C)C)cc3)no2)c(=O)c1=O | 1020 s |
| Cc1ccc(OCc2nnc(SCC(=O)Nc3nc(-c4ccccc4)cs3)o2)cc1 | 875 s |
| CN(C)CCn1nnc2cc(-c3noc(-c4cccc(C#N)c4)n3)ccc21 | 633 s |
| Cn1c(=O)n([C@H]2CCN(C(=O)c3ccco3)C2)c2ncccc21 | 656 s |
| CCCCOc1ccc(NC(=O)c2cc(=O)c3cc(Cl)c(C)cc3o2)c2cccnc12 | 824 s |
| O=C1CCCCC(C(=O)Nc2ccc3c(c2)OCCO3)N1 (centres undefined) | 669 s |
| Cc1c(Cl)cccc1NC(=O)N(C)CC1CCOC1 (centres undefined) | 720 s |
| Cc1cc(C)cc(N2CCC(NC(=O)CC(C)(C)C)C2=O)c1 (centres undefined) | 877 s |
| C#CCC(Cc1cnc2nc(N)nc(N)c2n1)c1ccc(C(=O)N[C@@H](CCC(=O)O)C(=O)O)cc1 (some centres undefined) | 619 s |
| COc1ccc(CNC(=O)C2CCCN(C(=O)c3[nH]c(C)c(C(=O)OC(C)C)c3C)C2)cc1 (centres undefined) | 812 s |
| COCCCN1C(=O)c2ccc(-c3ccco3)n2CC1(C)C(=O)NCc1ccccc1 (centres undefined) | 817 s |
| COC(=O)C1=C(CN2CCN(C)CC2)NC(=O)NC1c1ccccc1Cl (centres undefined) | 597 s |
| O=C(C1CCN(c2ccc3nncn3n2)CC1)N1CCN(c2ccccn2)CC1 | 560 s |
| Cc1nc(C(=O)NCCc2ccc(Cl)cc2)c(C)n1C1CCN(S(C)(=O)=O)CC1 | 689 s |
| COc1ccc(Cn2nc3ccc(S(=O)(=O)N4CCOCC4)cn3c2=O)cc1 | 792 s |
| CCn1cc(CCNS(=O)(=O)c2cccc(C#N)c2)c2cccnc21 | 733 s |
| CCC(Oc1ccc(=O)n(-c2ccc(F)cc2)n1)C(=O)NCc1ccc(C)o1 (centres undefined) | 831 s |
| CC(C)n1cnc(S(=O)(=O)N2CCC(C(=O)NCc3ccccc3Cl)CC2)c1 | 744 s |
| COC[C@@H]1CN(S(=O)(=O)c2ccc(C)cc2)C[C@H]1c1ccncc1 | 651 s |
| CCCS(=O)(=O)N1CCC(OCCOc2cccnc2)CC1 | 581 s |
| CCN(CC)S(=O)(=O)c1ccc2nc(NCc3cc(F)cc(F)c3)cnc2c1 | 1060 s |
| O=C(c1ccsc1)N1CCCC1c1nc(CCOCC2CCCC2)no1 (centres undefined) | 980 s |
| CO[C@@H]1[C@H](OC(=O)NC(=O)CCl)CC[C@]2(CO2)[C@H]1[C@@]1(C)O[C@@H]1CC=C(C)C | 692 s |
| Cc1ccc(C(C)C)cc1NC(=O)Nc1ccc([N+](=O)[O-])cc1 | 1160 s |
| Cc1cc(NC(=O)Cn2cnc(-c3cccs3)cc2=O)no1 | 669 s |
| CCn1cnc(S(=O)(=O)N2CCC(C(=O)N3CCN(c4ccc(OC)cc4)CC3)CC2)c1 | 668 s |

| Compound | RP-LC retention time |
| --- | --- |
| CCc1ccc(N2C(=O)C3N=NN(Cc4nc(-c5ccccc5Cl)no4)C3C2=O)cc1 (centres undefined) | 1060 s |
| CCn1ncc(CN(C)C(=O)c2cn3ccccc3n2)c1C | 556 s |
| O=C(Cc1noc2ccccc12)N1CCN(c2cc(-c3ccccc3)ncn2)CC1 | 745 s |
| CN1c2ccc(Cl)cc2C(=O)NC12CCN(C(=O)NCc1ccccc1)CC2 | 789 s |
| CCc1ccccc1NC(=O)N1CCC(n2cnc3ccc(C)cc3c2=O)CC1 | 799 s |
| COc1ccc(-c2noc(-c3nnn(Cc4nc(-c5ccccc5OC)oc4C)c3C)n2)cc1OC | 1000 s |
| Cc1cccc(NC(=O)N2CCCC2c2nc(-c3cccc(Cl)c3)no2)c1 (centres undefined) | 1100 s |
| CCOc1ccccc1-n1ccn(Cc2nc(-c3ccc(C)c(C)c3)no2)c(=O)c1=O | 958 s |
| COc1ccc(NS(=O)(=O)c2c(C)nn(-c3ccc(-c4ccc(C)c(C)c4)nn3)c2C)cc1OC | 1050 s |
| COC(=O)C1=CCCCCC(N2CCOCC2)=C1C(=O)OC | 684 s |
| O=C(NC1CC1)c1ccc(N2CCC(NCc3ccc(C(F)(F)F)cc3)C2)nc1 (centres undefined) | 663 s |
| Cc1ccc(NC(=O)c2sc(C)nc2C)c(Cl)c1 | 907 s |
| CCS(=O)(=O)N1CCCN(C(=O)NC)CC1 | 566 s |
| Cc1cccc2nc(-c3ccc(N4CCOCC4)cc3)c(Nc3ccc4c(c3)OCO4)n12 | 676 s |
| CCOC(=O)CNC(=O)Nc1ccc2nc(N3CCOCC3)cc(C)c2c1 | 582 s |
| O=C(c1ccsc1)N1CC(c2nc(CCOCC3CCOCC3)no2)C1 | 696 s |
| O=C(C1CCCN(c2ncnc3c2nc2n3CCCCC2)C1)N1CCCCC1 (centres undefined) | 713 s |
| CCCCN1C(=O)CN(C2CCCCC2)C(=O)C1c1ccc(OC)c(OC)c1 (centres undefined) | 877 s |
| CC(C)NC(=O)N1CCCC(c2cccc(C(=O)NCCCN3CCOCC3)c2)C1 (centres undefined) | 598 s |
| CCCNC(=O)c1cn(CCC)nc1S(=O)(=O)N1CCN(c2ccccc2OCC)CC1 | 1080 s |
| CCN(CC)S(=O)(=O)c1ccc(C)c(-c2nnc(-c3ccccc3)o2)c1 | 1090 s |
| COc1ccc(NC(=O)Nc2c(-c3ccc(F)cc3)nc3ccccn23)cc1OC | 629 s |
| O=C(Nc1ccc2c(c1)N(C(=O)c1cccs1)CC2)c1ccccn1 | 824 s |
| O=C(NC1CC1)[C@@H]1C[C@H](Oc2ccccc2)CN1C(=O)COc1ccccc1 | 797 s |
| O=C1C2CCCN2C(=O)c2ccccc2N1CCc1ccccc1 (centres undefined) | 757 s |
| Cc1nc(Cn2cccc2C(=O)Nc2ccc(Cl)cc2F)no1 | 893 s |
